Source: patent US20230218710A1, “METHOD OF TREATING CORONAVIRUS INFECTIONS” (priority 2020, published 2023)
Square brackets hold non-standard residues; d marks the D form. Peptide text beside a SMILES is read from it. * marks the point of attachment. CH3O(CH2CH2O)11CH2CH2CO = COCCOCCOCCOCCOCCOCCOCCOCCOCCOCCOCCOCCC(=O)*

target: human APJ (Homo sapiens, UniProt P35414); experiment: cell-based; settings: CHO-K1, 1.5 h, read-out: Percent of Apelin-13 Control Activity
Experimental: The effect of the peptides on activation of Apelin Receptor (APJ) can be assessed using an assay to monitor β-Arrestin recruitment in cultured cells overexpressing APJ such as CHO-K1, derived from Chinese hamster ovary. β-Arrestin recruitment assays were performed by Eurofins-DiscoverX (Fremont, Calif.) using CHO-K1 AGTRL1 β-Arrestin cell line (co-expressing ProLink tagged human APJ and Enzyme Acceptor tagged β-Arrestin) and PathHunter detection kit. Peptides were initially prepared either as 10 mM stock in DMSO and used at a final concentration of 10 μM (0.1% DMSO). CHO-K1 AGTRL1 β-Arrestin cells were seed onto 384-well plates in standard medium. […] Following 90 min. incubation at 37° C., β-Arrestin recruitment in response to various treatments was quantified using a chemiluminescent complementation reporter assay to measure association of tagged human APJ (ProLink tag) and tagged β-Arrestin (Enzyme Acceptor tag).

Chain of human APJ (P32121 whole entry partner, one chain of several): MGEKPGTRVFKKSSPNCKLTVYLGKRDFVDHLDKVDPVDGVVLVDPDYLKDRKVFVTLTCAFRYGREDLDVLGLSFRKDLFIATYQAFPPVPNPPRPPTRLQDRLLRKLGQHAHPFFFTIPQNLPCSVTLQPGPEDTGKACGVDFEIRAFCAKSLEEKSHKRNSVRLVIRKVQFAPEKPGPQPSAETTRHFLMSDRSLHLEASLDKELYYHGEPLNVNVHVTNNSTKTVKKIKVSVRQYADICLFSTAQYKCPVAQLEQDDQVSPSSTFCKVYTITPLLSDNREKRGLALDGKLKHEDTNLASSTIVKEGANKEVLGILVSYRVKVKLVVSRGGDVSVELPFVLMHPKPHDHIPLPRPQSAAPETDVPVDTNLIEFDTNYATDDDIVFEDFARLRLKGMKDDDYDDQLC

| Compound | Emax at 10 µM |
| --- | --- |
| COCCOCCOCCOCCOCCOCCOCCOCCOCCOCCOCCOCCC(=O)N[C@@H](CCCCN)C(=O)N[C@@H](CCCNC(=N)N)C(=O)N[C@@H](CCCNC(=N)N)C(=O)N[C@@H](CC(C)C)C(=O)N[C@@H](CC(C)C)C(=O)NCC(=O)N[C@@H](CC(C)C)C(=O)N[C@H](C(=O)N[C@@H](Cc1ccccc1)C(=O)N[C@@H](CCC(N)=O)C(=O)N[C@@H](CO)C(=O)N[C@@H](CC(C)C)C(=O)N[C@@H](CS)C(=O)NCC(=O)N[C@H](C)C(=O)O)C(C)C [compound 37] | 12% |
| CC[C@H](C)[C@H](NC(=O)CNC(=O)[C@@H](NC(=O)[C@@H](NC(=O)[C@H](CCCNC(=N)N)NC(=O)[C@H](CCCNC(=N)N)NC(=O)[C@H](CCCCN)NC(=O)CCOCCOCCOCCOCCOCCOCCOCCOCCOCCOCCOCCOC)[C@@H](C)CC)[C@@H](C)CC)C(=O)N[C@H](C(=O)N[C@@H](Cc1ccccc1)C(=O)N[C@@H](CCC(N)=O)C(=O)N[C@@H](CS)C(=O)N[C@@H](CC(C)C)C(=O)N[C@@H](CS)C(=O)NCC(=O)N[C@H](C)C(=O)O)C(C)C [compound 42] ({CH3O(CH2CH2O)11CH2CH2CO}-KRRIIGIVFQCLCG[dA]-OH; N-terminus and C-terminus assumed) | 8% |

target: T1, Apelin Receptor (APJ) (Homo sapiens, UniProt P35414); experiment: cell-based; settings: CHO-K1, 0.5 h, read-out: Percent of Pyr-Apelin-13 Control Activity
T1 construct: host or cells: CHO-K1 AGTRL1 Gi cells
T1 sequence (P35414 1-380): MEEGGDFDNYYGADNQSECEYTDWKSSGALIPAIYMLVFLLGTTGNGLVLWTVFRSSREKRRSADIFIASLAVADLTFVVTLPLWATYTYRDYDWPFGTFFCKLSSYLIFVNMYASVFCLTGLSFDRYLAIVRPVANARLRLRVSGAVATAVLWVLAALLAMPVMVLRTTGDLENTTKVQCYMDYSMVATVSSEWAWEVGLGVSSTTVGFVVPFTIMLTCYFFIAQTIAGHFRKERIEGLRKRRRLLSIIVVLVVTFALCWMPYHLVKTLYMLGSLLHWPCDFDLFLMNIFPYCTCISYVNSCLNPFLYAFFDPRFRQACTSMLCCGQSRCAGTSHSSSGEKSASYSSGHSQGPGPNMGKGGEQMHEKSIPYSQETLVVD
Experimental: Peptides were initially prepared as 30 mM stock in DMSO and diluted to 3 mM in H2O or directly as 3 mM stock in H2O; used at a final concentration of 10 μM (0-0.1% DMSO).

| Compound | Emax at 10 µM |
| --- | --- |
| COCCOCCOCCOCCOCCOCCOCCOCCOCCOCCOCCOCCC(=O)N[C@@H](CCCCN)C(=O)N[C@@H](CCCNC(=N)N)C(=O)N[C@@H](CCCNC(=N)N)C(=O)N[C@@H](CC(C)C)C(=O)N[C@@H](CC(C)C)C(=O)NCC(=O)N[C@@H](CC(C)C)C(=O)N[C@H](C(=O)N[C@@H](Cc1ccccc1)C(=O)N[C@@H](CCC(N)=O)C(=O)N[C@@H](CO)C(=O)N[C@@H](CC(C)C)C(=O)N[C@@H](CS)C(=O)NCC(=O)N[C@H](C)C(=O)O)C(C)C [compound 37] | 53% |
| CC[C@H](C)[C@H](NC(=O)CNC(=O)[C@@H](NC(=O)[C@@H](NC(=O)[C@H](CCCNC(=N)N)NC(=O)[C@H](CCCNC(=N)N)NC(=O)[C@H](CCCCN)NC(=O)CCOCCOCCOCCOCCOCCOCCOCCOCCOCCOCCOCCOC)[C@@H](C)CC)[C@@H](C)CC)C(=O)N[C@H](C(=O)N[C@@H](Cc1ccccc1)C(=O)N[C@@H](CCC(N)=O)C(=O)N[C@@H](CS)C(=O)N[C@@H](CC(C)C)C(=O)N[C@@H](CS)C(=O)NCC(=O)N[C@H](C)C(=O)O)C(C)C [compound 42] ({CH3O(CH2CH2O)11CH2CH2CO}-KRRIIGIVFQCLCG[dA]-OH; N-terminus and C-terminus assumed) | 33% |

test system: LPS-induced acute lung injury mouse model; experiment: LPS-induced acute lung injury model in mouse (Example 6); type: in vivo, mice; settings: histopathology, 0-5 scale, 24 h after LPS, 5 mg/kg i.p.
Experimental: The effect of the peptides of the current invention on acute lung injury can be assessed in an LPS-induced acute lung injury mouse model by monitoring outcomes such as lung weight, fluid accumulation, cytokine secretion in blood or bronchoalveolar lavage fluid (BALF), neutrophil infiltration into lung tissues, and assessment of acute lung injury score by histopathology. Acute lung injury was induced in male C57BL/6 mice (6 to 8 weeks old) by intratracheal administration of 40 μL lipopolysaccharide (LPS) (Sigma Aldrich, St. Louis, Mo.) in PBS at 5 mg/kg. Control animals received intratracheal PBS alone. […] Treatments were administered 1 h prior to LPS for animals designated for sacrifice at 4 h after LPS, or at both 1 h prior to and 6 h after LPS for animals designated for sacrifice at 24 h after LPS. At 4 or 24 hours post LPS administration, tissues were harvested. Lungs were weighed, flushed with Hanks Buffer to provide bronchoalveolar lavage fluid (BALF). Lungs were fixed in 10% neutral buffered formalin (NBF) for histopathology. Tissue slides were stained with hematoxylin and eosin (H&E) and evaluated and scored with light microscopy of 5 representative microscopic fields (100× magnification) scoring on a 0-5 scale using standard methods (Matute-Bello G et al 2011. An Official American Thoracic Society Workshop Report: Features and Measurements of Experimental Acute Lung Injury in Animals. Am J Respir Cell Mol Biol 44:725-38). The average score for five fields was calculated for each animal. Levels of pro-inflammatory cytokines in BALF were determined using a meso scale discovery (MSD) system. Data for test peptides were compared to the vehicle control group. Lung weights were normalized to body weight.

| Compound | Mean (SEM) Alveolar Neutrophil Infiltration Score | Mean (SEM) Interstitial Neutrophil Infiltration Score |
| --- | --- | --- |
| (PEG12)KRRMMGMVFQSLCG(dA) (KRRMMGMVFQSLCGA; N-terminal PEG12; C-terminal D-alanine; (1)..(1) PEG12; (15)..(15) D-Ala) [SEQ ID NO: 36] | 1.98 (0.18) | 1.60 (0.14) |

same assay, conditions: histopathology, 24 h after LPS, 5 mg/kg i.p.

| Compound | Mean (SEM) Composite Lung Injury Score |
| --- | --- |
| (PEG12)KRRMMGMVFQSLCG(dA) (KRRMMGMVFQSLCGA; N-terminal PEG12; C-terminal D-alanine; (1)..(1) PEG12; (15)..(15) D-Ala) [SEQ ID NO: 36] | 3.65 (0.28) |

test system: not listed separately; experiment: in vitro; settings: human, pooled human plasma
Experimental: The metabolic stability of the peptides can be assessed in vitro by incubation in plasma and determination of the amount of peptide remaining over time. Peptides (50 μM) were incubated in pooled plasma from mice, monkeys, and humans at 37° C. Samples were removed at intervals up to 3 hours and immediately analyzed for the concentration of intact peptide by LC/MS/MS. The percent of peptide remaining in plasma at each time point was calculated relative to the initial peak area.

| Compound | remaining at 0.5 h, 50 μM |
| --- | --- |
| CSCC[C@H](NC(=O)CNC(=O)[C@H](CCSC)NC(=O)[C@@H](N)CCSC)C(=O)N[C@H](C(=O)N[C@@H](Cc1ccccc1)C(=O)O)C(C)C [compound 45] (H-MMGMVF-OH) | 90.8% |
| CSCC[C@H](NC(=O)CNC(=O)[C@H](CCSC)NC(=O)[C@H](CCSC)NC(=O)[C@H](CCCNC(=N)N)NC(=O)[C@@H](N)CCCNC(=N)N)C(=O)N[C@H](C(=O)N[C@@H](Cc1ccccc1)C(=O)N[C@@H](CCC(N)=O)C(=O)N[C@@H](CO)C(=O)N[C@@H](CC(C)C)C(=O)N[C@@H](CS)C(=O)NCC(=O)N[C@H](C)C(N)=O)C(C)C [compound 62] | 30.3% |
| CSCC[C@H](NC(=O)CNC(=O)[C@H](CCSC)NC(=O)[C@H](CCSC)NC(=O)[C@H](CCCNC(=N)N)NC(=O)[C@@H](N)CCCNC(=N)N)C(=O)N[C@H](C(=O)N[C@@H](Cc1ccccc1)C(=O)O)C(C)C [compound 57] (H-RRMMGMVF-OH) | 91.9% |
| CSCC[C@H](NC(=O)CNC(=O)[C@H](CCSC)NC(=O)[C@H](CCSC)NC(=O)[C@H](CCCNC(=N)N)NC(=O)[C@@H](N)CCCNC(=N)N)C(=O)N[C@H](C(=O)O)C(C)C [compound 56] (H-RRMMGMV-OH) | 92.1% |
| CSCC[C@H](NC(=O)CNC(=O)[C@H](CCSC)NC(=O)[C@@H](N)CCSC)C(=O)N[C@H](C(=O)N[C@@H](Cc1ccccc1)C(=O)N[C@@H](CCC(N)=O)C(=O)N[C@@H](CO)C(=O)N[C@@H](CC(C)C)C(=O)O)C(C)C [compound 48] (H-MMGMVFQSL-OH) | 92% |
| CSCC[C@H](NC(=O)CNC(=O)[C@H](CCSC)NC(=O)[C@H](CCSC)NC(=O)[C@H](CCCNC(=N)N)NC(=O)[C@@H](N)CCCNC(=N)N)C(=O)N[C@H](C(=O)N[C@@H](Cc1ccccc1)C(=O)N[C@@H](CCC(N)=O)C(=O)O)C(C)C [compound 58] (H-RRMMGMVFQ-OH) | 69.5% |
| CSCC[C@H](NC(=O)CNC(=O)[C@H](CCSC)NC(=O)[C@H](CCSC)NC(=O)[C@@H](N)CCCNC(=N)N)C(=O)N[C@H](C(=O)N[C@@H](Cc1ccccc1)C(=O)N[C@@H](CCC(N)=O)C(=O)N[C@@H](CO)C(=O)N[C@@H](CC(C)C)C(=O)O)C(C)C [compound 53] (H-RMMGMVFQSL-OH) | 85.8% |
| CSCC[C@H](NC(=O)CNC(=O)[C@H](CCSC)NC(=O)[C@H](CCSC)NC(=O)[C@H](CCCNC(=N)N)NC(=O)[C@@H](N)CCCNC(=N)N)C(=O)O [compound 55] (H-RRMMGM-OH) | 100% |
| CSCC[C@H](NC(=O)CNC(=O)[C@H](CCSC)NC(=O)[C@H](CCSC)NC(=O)[C@H](CCCNC(=N)N)NC(=O)[C@@H](N)CCCNC(=N)N)C(=O)N[C@H](C(=O)N[C@@H](Cc1ccccc1)C(=O)N[C@@H](CCC(N)=O)C(=O)N[C@@H](CO)C(=O)N[C@@H](CC(C)C)C(=O)O)C(C)C [compound 60] (H-RRMMGMVFQSL-OH) | 95% |
| CSCC[C@H](NC(=O)CNC(=O)[C@H](CCSC)NC(=O)[C@H](CCSC)NC(=O)[C@H](CCCNC(=N)N)NC(=O)[C@@H](N)CCCNC(=N)N)C(=O)N[C@H](C(=O)N[C@@H](Cc1ccccc1)C(=O)N[C@@H](CCC(N)=O)C(=O)N[C@@H](CO)C(=O)O)C(C)C [compound 59] (H-RRMMGMVFQS-OH) | 62.9% |
| CSCC[C@H](NC(=O)CNC(=O)[C@H](CCSC)NC(=O)[C@@H](N)CCSC)C(=O)N[C@H](C(=O)N[C@@H](Cc1ccccc1)C(=O)N[C@@H](CCC(N)=O)C(=O)N[C@@H](CO)C(=O)O)C(C)C [compound 47] (H-MMGMVFQS-OH) | 86.1% |
| CC[C@H](C)[C@H](NC(=O)[C@H](CCCNC(=N)N)NC(=O)[C@@H](N)CCCNC(=N)N)C(=O)N[C@H](C(=O)N[C@H](C)C(=O)N[C@H](C(=O)N[C@H](C(=O)N[C@@H](Cc1ccccc1)C(=O)N[C@@H](CCC(N)=O)C(=O)N[C@@H](CS)C(=O)N[C@@H](CC(C)C)C(=O)N[C@@H](CS)C(=O)N[C@H](C)C(=O)N[C@@H](CC(C)C)C(=O)O)C(C)C)[C@@H](C)CC)[C@@H](C)CC [compound 9] (H-RRII[dA]IVFQCLC[dA]L-OH) | 92.5% |
| CSCC[C@H](NC(=O)CNC(=O)[C@H](CCSC)NC(=O)[C@H](CCSC)NC(=O)[C@H](CCCNC(=N)N)NC(=O)[C@H](CCCNC(=N)N)NC(=O)[C@@H](N)CCSC)C(=O)N[C@H](C(=O)N[C@@H](Cc1ccccc1)C(=O)N[C@@H](CCC(N)=O)C(=O)N[C@@H](CS)C(=O)N[C@@H](CC(C)C)C(=O)N[C@@H](CS)C(=O)NCC(=O)N[C@@H](CC(C)C)C(=O)O)C(C)C [compound 7] | 52.4% |
| CSCC[C@H](NC(=O)CNC(=O)[C@H](CCSC)NC(=O)[C@H](CCSC)NC(=O)[C@@H](N)CCCNC(=N)N)C(=O)N[C@H](C(=O)N[C@@H](Cc1ccccc1)C(=O)O)C(C)C [compound 50] (H-RMMGMVF-OH) | 87.7% |
| CSCC[C@H](NC(=O)CNC(=O)[C@H](CCSC)NC(=O)[C@H](CCSC)NC(=O)[C@@H](N)CCCNC(=N)N)C(=O)N[C@H](C(=O)N[C@@H](Cc1ccccc1)C(=O)N[C@@H](CCC(N)=O)C(=O)N[C@@H](CO)C(=O)O)C(C)C [compound 52] (H-RMMGMVFQS-OH) | 97.5% |
| CSCC[C@H](NC(=O)CNC(=O)[C@H](CCSC)NC(=O)[C@@H](N)CCSC)C(=O)N[C@H](C(=O)N[C@@H](Cc1ccccc1)C(=O)N[C@@H](CCC(N)=O)C(=O)O)C(C)C [compound 46] (H-MMGMVFQ-OH) | 100% |
| CSCC[C@H](NC(=O)CNC(=O)[C@H](CCSC)NC(=O)[C@H](CCSC)NC(=O)[C@@H](N)CCCNC(=N)N)C(=O)N[C@H](C(=O)N[C@@H](Cc1ccccc1)C(=O)N[C@@H](CCC(N)=O)C(=O)O)C(C)C [compound 51] (H-RMMGMVFQ-OH) | 100% |
